≈ marks a conversion by molar mass, not a printed value.
What was measured:
HCT-116 [1] = test: Anticancer activity against human HCT-116 cells assessed as reduction in cell growth incubated for 72 hrs by MTT assay; format: functional, cell-based; conditions: HCT-116, 72 h
DLD-1 [2] = test: Anticancer activity against human DLD-1 cells assessed as reduction in cell growth incubated for 72 hrs by MTT assay; format: functional, cell-based; conditions: DLD-1, 72 h
SW480 [3] = test: Anticancer activity against human SW480 cells assessed as reduction in cell growth incubated for 72 hrs by MTT assay; format: functional, cell-based; conditions: SW480, 72 h
SW480 [4] = test: Antiproliferative activity against human SW480 cells assessed as reduction in cell proliferation; format: functional, cell-based
DLD-1 [5] = test: Antiproliferative activity against human DLD-1 cells assessed as reduction in cell proliferation; format: functional, cell-based
SW480 [6] = test: Anticancer activity against human SW480 cells assessed as reduction in cell proliferation incubated for 72 hrs by; format: functional, cell-based
HCT-116 [7] = test: Antiproliferative activity against human HCT-116 cells assessed as decrease in cell growth incubated for 24 hrs by MTS assay; format: functional, cell-based; conditions: HCT-116, 24 h
HCT-116 [8] = test: Antiproliferative activity against human HCT-116 cells assessed as reduction in cell proliferation incubated for 24 hrs by MTT assay; format: functional, cell-based; conditions: HCT-116, 24 h
SW480 [9] = test: Antiproliferative activity against human SW480 cells assessed as reduction in cell proliferation incubated for 24 hrs by MTT assay; format: functional, cell-based; conditions: SW480, 24 h
HCT-116 [10] = test: Cytotoxicity in human HCT-116 cells expressing wild type APC assessed as reduction in cell viability incubated for 96 hrs by Cell Titer-Glo assay; format: functional, cell-based; conditions: HCT-116, 96 h
DLD-1 [11] = test: Cytotoxicity in human DLD-1 cells expressing APC mutant assessed as reduction in cell viability incubated for 96 hrs by Cell Titer-Glo assay; format: functional, cell-based; conditions: DLD-1, 96 h
LoVo = test: Antiproliferative activity against human LoVo cells assessed as decrease in cell viability by MTT assay; format: functional, cell-based
HCT-116 [12] = test: Anticancer activity against human HCT-116 cells assessed as reduction in cell viability incubated for 24 hrs by MTT assay; format: functional, cell-based; conditions: HCT-116, 24 h
SW480 [13] = test: Anticancer activity against human SW480 cells assessed as reduction in cell viability incubated for 24 hrs by MTT assay; format: functional, cell-based; conditions: SW480, 24 h
[14] = target: T1, Poly [ADP-ribose] polymerase tankyrase-1 (Homo sapiens, UniProt O95271); test: Inhibition of TNKS1 (unknown origin)
T1 sequence (O95271 whole entry): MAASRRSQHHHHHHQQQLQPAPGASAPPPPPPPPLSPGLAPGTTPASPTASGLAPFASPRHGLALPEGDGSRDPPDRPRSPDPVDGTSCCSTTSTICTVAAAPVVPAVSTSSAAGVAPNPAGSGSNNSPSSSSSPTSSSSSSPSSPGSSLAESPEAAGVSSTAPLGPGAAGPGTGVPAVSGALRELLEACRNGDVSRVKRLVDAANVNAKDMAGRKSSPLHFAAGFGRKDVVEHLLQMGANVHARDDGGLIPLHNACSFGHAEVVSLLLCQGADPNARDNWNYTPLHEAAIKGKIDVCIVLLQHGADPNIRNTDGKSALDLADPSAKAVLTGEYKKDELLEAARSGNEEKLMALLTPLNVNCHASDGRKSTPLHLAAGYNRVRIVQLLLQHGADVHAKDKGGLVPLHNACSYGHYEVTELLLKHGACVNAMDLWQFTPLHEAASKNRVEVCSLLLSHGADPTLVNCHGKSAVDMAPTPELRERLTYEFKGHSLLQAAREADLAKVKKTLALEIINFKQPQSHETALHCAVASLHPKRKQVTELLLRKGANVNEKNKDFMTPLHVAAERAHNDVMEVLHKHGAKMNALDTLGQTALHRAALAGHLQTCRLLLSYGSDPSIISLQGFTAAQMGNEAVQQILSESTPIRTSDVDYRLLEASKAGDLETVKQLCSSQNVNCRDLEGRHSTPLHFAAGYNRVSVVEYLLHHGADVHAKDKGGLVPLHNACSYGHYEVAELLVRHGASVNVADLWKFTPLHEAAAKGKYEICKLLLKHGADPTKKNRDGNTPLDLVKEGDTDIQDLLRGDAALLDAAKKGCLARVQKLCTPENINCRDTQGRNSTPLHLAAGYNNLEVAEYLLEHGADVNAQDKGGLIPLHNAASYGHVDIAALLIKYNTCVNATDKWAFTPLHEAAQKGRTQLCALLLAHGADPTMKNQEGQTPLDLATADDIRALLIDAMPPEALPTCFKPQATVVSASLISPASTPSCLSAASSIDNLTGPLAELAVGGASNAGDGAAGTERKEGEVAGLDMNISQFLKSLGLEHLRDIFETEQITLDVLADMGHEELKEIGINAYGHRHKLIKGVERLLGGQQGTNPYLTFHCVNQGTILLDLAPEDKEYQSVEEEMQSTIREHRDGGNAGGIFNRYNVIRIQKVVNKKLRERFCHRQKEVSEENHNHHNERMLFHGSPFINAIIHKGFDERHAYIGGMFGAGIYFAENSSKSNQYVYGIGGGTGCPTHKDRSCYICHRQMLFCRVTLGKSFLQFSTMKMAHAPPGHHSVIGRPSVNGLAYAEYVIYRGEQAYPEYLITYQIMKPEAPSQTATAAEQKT

[15] = target: T2, Poly [ADP-ribose] polymerase tankyrase-2 (Homo sapiens, UniProt Q9H2K2); test: Inhibition of TNKS2 (unknown origin)
T2 sequence (Q9H2K2 whole entry): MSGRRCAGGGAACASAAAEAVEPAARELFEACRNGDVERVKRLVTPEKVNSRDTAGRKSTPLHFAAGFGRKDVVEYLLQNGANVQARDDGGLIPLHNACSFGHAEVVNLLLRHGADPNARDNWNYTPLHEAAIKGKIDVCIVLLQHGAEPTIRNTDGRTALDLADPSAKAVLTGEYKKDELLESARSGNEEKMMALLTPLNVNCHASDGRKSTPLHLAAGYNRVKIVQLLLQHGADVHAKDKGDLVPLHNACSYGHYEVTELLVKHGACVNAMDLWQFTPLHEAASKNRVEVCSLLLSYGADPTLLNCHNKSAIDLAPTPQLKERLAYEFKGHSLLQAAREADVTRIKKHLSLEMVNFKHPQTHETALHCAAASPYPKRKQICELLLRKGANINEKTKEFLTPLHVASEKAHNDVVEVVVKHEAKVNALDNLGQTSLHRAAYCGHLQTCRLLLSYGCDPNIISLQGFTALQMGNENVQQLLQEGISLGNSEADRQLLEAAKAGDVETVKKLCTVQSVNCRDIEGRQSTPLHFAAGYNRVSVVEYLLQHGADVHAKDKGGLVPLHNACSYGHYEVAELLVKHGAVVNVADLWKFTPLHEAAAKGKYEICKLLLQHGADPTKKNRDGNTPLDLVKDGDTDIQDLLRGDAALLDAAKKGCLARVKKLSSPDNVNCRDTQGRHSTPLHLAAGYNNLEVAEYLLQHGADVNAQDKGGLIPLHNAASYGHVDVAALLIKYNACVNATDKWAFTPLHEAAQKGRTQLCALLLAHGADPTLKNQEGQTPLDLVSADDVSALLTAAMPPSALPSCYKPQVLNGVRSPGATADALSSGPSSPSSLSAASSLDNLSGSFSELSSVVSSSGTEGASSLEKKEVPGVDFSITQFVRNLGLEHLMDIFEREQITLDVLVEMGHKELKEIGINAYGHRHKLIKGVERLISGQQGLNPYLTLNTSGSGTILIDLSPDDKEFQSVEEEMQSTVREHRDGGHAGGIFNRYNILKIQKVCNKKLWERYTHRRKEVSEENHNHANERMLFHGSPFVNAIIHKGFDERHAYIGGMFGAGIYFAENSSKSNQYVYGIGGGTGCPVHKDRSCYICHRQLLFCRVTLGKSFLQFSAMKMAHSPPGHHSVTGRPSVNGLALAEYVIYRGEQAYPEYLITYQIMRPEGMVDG

SW480 [16] = test: Anticancer activity against human SW480 cells assessed as decrease in cell growth incubated for 72 hrs by tryphan blue staining based cell counter analysis; format: functional; conditions: SW480, 72 h
HCT-116 [17] = test: Anticancer activity against human HCT-116 cells assessed as decrease in cell growth incubated for 72 hrs by tryphan blue staining based cell counter analysis; format: functional; conditions: HCT-116, 72 h
DLD-1 [18] = test: Anticancer activity against human DLD1 cells expressing APC mutant assessed as reduction in cell viability by dual-glo luciferase assay; format: functional, cell-based
SW480 [19] = test: Antiproliferative activity against human SW480 cells assessed as reduction in cell viability incubated for 48 hrs by MTT assay; format: functional, cell-based; conditions: SW480, 48 h
HCT-116 [20] = test: Antiproliferative activity against human HCT-116 cells assessed as reduction in cell viability incubated for 48 hrs by MTT assay; format: functional, cell-based; conditions: Homo sapiens, HCT-116, 48 h; read-out: IC50
SW480 [21] = test: Antiproliferative activity against human SW480 cells assessed as reduction in cell viability; format: functional, cell-based
HCT-116 [22] = test: Antiproliferative activity against human HCT-116 cells assessed as reduction in cell viability; format: functional, cell-based

## O=C(/C=C/C=C/c1ccc2c(c1)OCO2)N1CCCCC1 [PIPERINE]
HCT-116 [1]
  IC50: < 200 µM
DLD-1 [2]
  IC50: < 200 µM
SW480 [3]
  IC50: < 200 µM

## CC(=O)N(O)CCCCCNC(=O)CCC(=O)N(O)CCCCCNC(=O)CCC(=O)N(O)CCCCCN [DEFEROXAMINE]
SW480 [4]
  IC50: 3.8 µM
DLD-1 [5]
  IC50: 2.9 µM

## CC(=O)O[C@@H]1C(=O)c2c(O)cc(O)cc2O[C@H]1c1ccccc1
SW480 [6]
  IC50: 45.6 µg/mL (≈ 145 µM)

## O=C(O[C@@H]1Cc2c(O)cc(O)cc2O[C@@H]1c1cc(O)c(O)c(O)c1)c1cc(O)c(O)c(O)c1 [EPIGALOCATECHIN GALLATE]
HCT-116 [7]
  IC50: 5 µM

## CC1(C)C=Cc2c(ccc(C(=O)/C=C/c3ccccc3)c2O)O1 [LONCHOCARPIN]
HCT-116 [8]
  IC50: 20 µM
SW480 [9]
  IC50: 20 µM

## CC[C@H](C)C(=O)O[C@H]1CCC=C2C=C[C@H](C)[C@H](CC[C@@H]3C[C@@H](O)CC(=O)O3)[C@H]21 [MEVASTATIN]
HCT-116 [10]
  IC50: 18.6 µM
DLD-1 [11]
  IC50: 3.2 µM

## Oc1ccc(/C=C/c2cc(O)cc(O)c2)cc1 [RESVERATROL]
LoVo
  IC50: 55 µM

## CC1=C(CO)C(=O)O[C@@H]([C@@H](C)[C@H]2CC[C@H]3[C@@H]4C[C@H]5O[C@]56[C@@H](O)C=CC(=O)[C@]6(C)[C@H]4CC[C@]23C)C1 [WITHAFERIN A]
HCT-116 [12]
  IC50: 3.7 µM
SW480 [13]
  IC50: 4.9 µM

## Cc1ccccc1-n1c(/C=C/c2nnc(-c3ccc(C#N)cc3)o2)nnc1-c1ccc(S(C)(=O)=O)cn1
[14]
  IC50: 0.046 µM
[15]
  IC50: 0.025 µM

## COc1cc(C2Oc3cc([C@H]4Oc5cc(O)cc(O)c5C(=O)[C@@H]4O)ccc3OC2CO)ccc1O (stereo partly drawn) [SILIBININ]
SW480 [16]
  IC50: 50 µM
HCT-116 [17]
  IC50: 50 µM

## CCN(C(=O)C1CCN(S(=O)(=O)c2cc(Br)cc3c2N(C(C)=O)CC3)CC1)c1cccc(C)c1
DLD-1 [18]
  IC50: 0.9 µM

## C=C1C(=O)[C@@]23[C@H](O)CC4C(C)(C)[C@@H](OC(C)=O)CC[C@@]4(C)[C@@H]2[C@@H]2O[C@@H]2[C@@H]1[C@H]3O (stereo partly drawn)
SW480 [19]
  IC50: 20 µM
HCT-116 [20]
  IC50: 20 µM

## CC(C)=CCc1c(O)ccc(C(=O)/C=C/c2ccc(O)cc2)c1O [ISOBAVACHALCONE]
SW480 [21]
  IC50: 44.1 µM
HCT-116 [22]
  IC50: 75.5 µM
